In patent publication US11584737B2, “Heterocyclic compound” (TAKEDA PHARMACEUTICAL COMPANY LIMITED, priority 2018, dated 2023):

biological target: CDK12/CycK complex (Homo sapiens, UniProt Q9NYV4); experiment: Measurement of CDK12 inhibitory activity by binding assay (TR-FRET, 66 nM BODIPY-FL-labeled AT-7519); details: inhibitory rate against CDK12 at 1 μM test compound, 66 nM BODIPY-FL-labeled AT-7519, 2 nM CDK12/CycK
Procedure: Experimental Example 1: CDK12 Binding Assay
(3) Measurement of CDK12 Inhibitory Activity by Binding Assay
His-tagged CDK12/CycK complex was added to a binding assay buffer supplemented with BODIPY-FL labeled AT-7519, terbium-labeled streptavidin and biotin-labeled anti-histidine antibody, and the mixture was stood for not less than 60 min at room temperature. This solution was added to an assay plate containing a test compound dispensed therein, and the mixture was left standing for 120 min at room temperature. The final concentration of CDK12/CycK complex, BODIPY-FL-labeled AT-7519, terbium-labeled streptavidin and biotin-labeled anti-histidine antibody was set to 2 nM, 66 nM, 0.2 nM, and 0.4 nM, respectively. The fluorescence intensity derived from terbium and BODIPY-FL was measured using Envision. The signal value of each well was determined using the TR-FRET ratio calculated by the following formula. TR-FRET ratio=(fluorescence value of BODIPY-FL)÷(fluorescence value of terbium)
The inhibitory rate (%) of the test compound against CDK12 was calculated by the following formula. Inhibitory rate (%)=(1−(TR-FRET ratio of test compound−blank)÷(control−blank))×100
The TR-FRET ratio of the CDK12 enzyme reaction mixture under compound non-addition conditions is indicated as control, and the TR-FRET ratio under 3 μM AT-7519 addition conditions is indicated as blank.
The inhibitory rate of the test compound against CDK12 at […] is shown below.

Chain of CDK12/CycK complex (Q9NYV4 whole entry, species assumed): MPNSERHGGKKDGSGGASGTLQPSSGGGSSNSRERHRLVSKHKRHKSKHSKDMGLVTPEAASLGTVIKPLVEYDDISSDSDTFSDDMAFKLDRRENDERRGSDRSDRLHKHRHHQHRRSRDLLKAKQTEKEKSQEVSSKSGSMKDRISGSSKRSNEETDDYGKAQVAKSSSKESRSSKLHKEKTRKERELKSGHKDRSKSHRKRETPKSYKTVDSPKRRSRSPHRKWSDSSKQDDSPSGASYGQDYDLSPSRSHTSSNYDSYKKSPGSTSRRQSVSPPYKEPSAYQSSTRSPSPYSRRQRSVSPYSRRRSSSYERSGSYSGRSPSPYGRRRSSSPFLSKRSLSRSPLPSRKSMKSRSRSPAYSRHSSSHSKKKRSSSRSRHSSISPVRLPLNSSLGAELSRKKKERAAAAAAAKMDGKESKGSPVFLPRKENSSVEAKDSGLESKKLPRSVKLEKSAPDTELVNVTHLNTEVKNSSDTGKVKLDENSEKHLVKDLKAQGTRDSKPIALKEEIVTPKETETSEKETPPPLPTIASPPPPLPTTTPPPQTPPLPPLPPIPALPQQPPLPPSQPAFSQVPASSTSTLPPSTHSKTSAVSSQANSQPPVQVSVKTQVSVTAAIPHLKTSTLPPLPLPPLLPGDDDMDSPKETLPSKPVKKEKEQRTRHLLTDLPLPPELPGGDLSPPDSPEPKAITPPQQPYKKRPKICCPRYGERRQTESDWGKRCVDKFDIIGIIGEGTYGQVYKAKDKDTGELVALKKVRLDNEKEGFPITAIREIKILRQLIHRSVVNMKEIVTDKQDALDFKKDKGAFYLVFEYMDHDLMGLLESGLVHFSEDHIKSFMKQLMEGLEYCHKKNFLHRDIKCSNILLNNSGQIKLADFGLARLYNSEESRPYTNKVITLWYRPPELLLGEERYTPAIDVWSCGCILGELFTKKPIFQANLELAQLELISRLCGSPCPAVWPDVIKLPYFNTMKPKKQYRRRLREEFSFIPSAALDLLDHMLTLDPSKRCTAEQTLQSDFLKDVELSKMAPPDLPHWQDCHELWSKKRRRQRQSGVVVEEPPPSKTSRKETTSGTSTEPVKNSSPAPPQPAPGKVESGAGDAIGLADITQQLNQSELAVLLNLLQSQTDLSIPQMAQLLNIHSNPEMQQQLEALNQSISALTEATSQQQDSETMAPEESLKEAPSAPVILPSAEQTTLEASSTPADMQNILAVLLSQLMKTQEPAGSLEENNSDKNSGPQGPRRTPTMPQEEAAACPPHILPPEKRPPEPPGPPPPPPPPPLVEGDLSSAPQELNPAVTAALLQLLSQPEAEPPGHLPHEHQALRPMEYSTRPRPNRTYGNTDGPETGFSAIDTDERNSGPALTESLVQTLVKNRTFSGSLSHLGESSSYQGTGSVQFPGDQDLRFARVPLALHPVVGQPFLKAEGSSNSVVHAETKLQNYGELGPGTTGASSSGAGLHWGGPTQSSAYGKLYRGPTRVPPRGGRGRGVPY
Chain of CDK12/CycK complex (O75909 whole entry partner, species assumed): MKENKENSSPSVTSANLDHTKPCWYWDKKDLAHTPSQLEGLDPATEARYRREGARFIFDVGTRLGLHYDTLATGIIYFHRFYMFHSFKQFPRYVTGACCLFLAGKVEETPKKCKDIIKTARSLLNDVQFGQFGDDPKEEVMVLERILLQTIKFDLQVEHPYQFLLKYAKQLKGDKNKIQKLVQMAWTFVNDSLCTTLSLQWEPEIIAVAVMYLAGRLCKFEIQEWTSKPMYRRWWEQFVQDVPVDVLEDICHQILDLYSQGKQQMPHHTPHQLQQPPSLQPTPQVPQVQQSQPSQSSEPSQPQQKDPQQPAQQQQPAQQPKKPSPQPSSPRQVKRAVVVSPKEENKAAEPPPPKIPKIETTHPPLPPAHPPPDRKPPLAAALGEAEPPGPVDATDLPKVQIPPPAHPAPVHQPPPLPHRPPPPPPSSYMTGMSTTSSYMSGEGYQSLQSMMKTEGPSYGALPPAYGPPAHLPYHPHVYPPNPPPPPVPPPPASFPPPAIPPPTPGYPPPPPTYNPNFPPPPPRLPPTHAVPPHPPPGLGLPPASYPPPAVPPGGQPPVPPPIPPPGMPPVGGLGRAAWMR

inhibition at 1 µM | Compound
101% | Cn1cc(-c2ccc(N(C(=O)NCc3ccccc3)[C@H]3CC[C@H](Nc4ncc(C#N)c(NCCCO)n4)CC3)cc2)cn1 [Example 199, 3-benzyl-1-(trans-4-((5-cyano-4-((3-hydroxypropyl)amino)pyrimidin-2-yl)amino)cyclohexyl)-1-(4-(1-methyl-1H-pyrazol-4-yl)phenyl)urea]
104% | Cn1cc(-c2ccc(N(C(=O)NCc3ccccc3)[C@H]3CC[C@H](Nc4ncc(C#N)c(N5CC(C)(O)C5)n4)CC3)nc2)cn1 [Example 482, 3-benzyl-1-(trans-4-((5-cyano-4-(3-hydroxy-3-methylazetidin-1-yl)pyrimidin-2-yl)amino)cyclohexyl)-1-(5-(1-methyl-1H-pyrazol-4-yl)pyridin-2-yl) urea]
103% | Cn1cc(-c2ccc(N(C(=O)NCc3ccccc3)[C@H]3CC[C@H](Nc4ncc(C#N)c(NC5COC5)n4)CC3)cc2)ccc1=O [Example 483, 3-benzyl-1-(trans-4-((5-cyano-4-(oxetan-3-ylamino)pyrimidin-2-yl)amino)cyclohexyl)-1-(4-(1-methyl-6-oxo-1,6-dihydropyridin-3-yl)phenyl)urea]
92% | Cn1ccc(-c2ccc(N(C(=O)NCc3ccccc3)[C@H]3CC[C@H](Nc4ncc(C#N)c(-c5ccc(C#N)s5)n4)CC3)cn2)cc1=O [Example 492, 3-benzyl-1-(trans-4-((5-cyano-4-(5-cyano-2-thienyl)pyrimidin-2-yl)amino)cyclohexyl)-1-(1′-methyl-2′-oxo-1′,2′-dihydro-2,4′-bipyridin-5-yl)urea]
81% | Cn1cc(-c2cnc(N(C(=O)NCc3ccccc3)[C@H]3CC[C@H](Nc4ncc(C#N)c(-c5ccc(C#N)s5)n4)CC3)cn2)cn1 [Example 495, 3-benzyl-1-(trans-4-((5-cyano-4-(5-cyano-2-thienyl)pyrimidin-2-yl)amino)cyclohexyl)-1-(5-(1-methyl-1H-pyrazol-4-yl)pyrazin-2-yl)urea]
106% | Cn1cc(-c2ccc(N(C(=O)NCc3ccccc3)[C@H]3CC[C@H](Nc4ncc(C#N)c(NC5COC5)n4)CC3)nn2)cn1 [Example 532, 3-benzyl-1-(trans-4-((5-cyano-4-(oxetan-3-ylamino)pyrimidin-2-yl)amino)cyclohexyl)-1-(6-(1-methyl-1H-pyrazol-4-yl)pyridazin-3-yl)urea]
86% | Cn1cc(-c2ccc(N(C(=O)NCc3ccccc3)[C@H]3CC[C@H](Nc4ncc(C#N)c(-c5ccc(C#N)s5)n4)CC3)nn2)cn1 [Example 538, 3-benzyl-1-(trans-4-((5-cyano-4-(5-cyano-2-thienyl)pyrimidin-2-yl)amino)cyclohexyl)-1-(6-(1-methyl-1H-pyrazol-4-yl)pyridazin-3-yl)urea]
100% | Cc1cc(-c2nc(N[C@H]3CC[C@H](N(C(=O)NCc4ccccc4)c4ccc(-c5cnn(C)c5)nn4)CC3)ncc2C#N)[nH]n1 [Example 542, 3-benzyl-1-(trans-4-((5-cyano-4-(3-methyl-1H-pyrazol-5-yl)pyrimidin-2-yl)amino)cyclohexyl)-1-(6-(1-methyl-1H-pyrazol-4-yl)pyridazin-3-yl)urea]
98% | Cc1cc(-c2nc(N[C@H]3CC[C@H](N(C(=O)NCc4ccccc4)c4cnc(-c5cnn(C)c5)cn4)CC3)ncc2C#N)[nH]n1 [Example 552, 3-benzyl-1-(trans-4-((5-cyano-4-(3-methyl-1H-pyrazol-5-yl)pyrimidin-2-yl)amino)cyclohexyl)-1-(5-(1-methyl-1H-pyrazol-4-yl)pyrazin-2-yl) urea]
102% | COc1ncc(-c2ccc(N(C(=O)COc3ccccc3)[C@H]3CC[C@H](Nc4ncc(C#N)c(NC5COC5)n4)CC3)nc2)cn1 [Example 587, N-(trans-4-((5-cyano-4-(oxetan-3-ylamino)pyrimidin-2-yl)amino)cyclohexyl)-N-(5-(2-methoxypyrimidin-5-yl)pyridin-2-yl)-2-phenoxyacetamide]
101% | COc1ncc(-c2ccc(N(C(=O)NCc3ccccc3)[C@H]3CC[C@H](Nc4ncc(C(F)(F)F)c(N5CCCC(O)CC5)n4)CC3)nc2)cn1 (stereo partly drawn) [Example 592, 3-benzyl-1-(trans-4-((4-(4-hydroxyazepan-1-yl)-5-(trifluoromethyl)pyrimidin-2-yl)amino)cyclohexyl)-1-(5-(2-methoxypyrimidin-5-yl)pyridin-2-yl)urea]
104% | COc1ncc(-c2ccc(N(C(=O)NCc3ccccc3)[C@H]3CC[C@H](Nc4ncc(C#N)c(N5CCCC(O)CC5)n4)CC3)nc2)cn1 (stereo partly drawn) [Example 595, 3-benzyl-1-(trans-4-((5-cyano-4-(4-hydroxyazepan-1-yl)pyrimidin-2-yl)amino)cyclohexyl)-1-(5-(2-methoxypyrimidin-5-yl)pyridin-2-yl)urea]
102% | COc1ncc(-c2ccc(N(C(=O)OCc3ccccc3)[C@H]3CC[C@H](Nc4ncc(C#N)c(N5CCCC(O)CC5)n4)CC3)nc2)cn1 (stereo partly drawn) [Example 599, benzyl (trans-4-((5-cyano-4-(4-hydroxyazepan-1-yl)pyrimidin-2-yl)amino)cyclohexyl) (5-(2-methoxypyrimidin-5-yl)pyridin-2-yl)carbamate]
96% | COc1ncc(-c2cnc(N(C(=O)NCc3ccccc3)[C@H]3CC[C@H](Nc4ncc(C(F)(F)F)c(OC5COC5)n4)CC3)nc2)cn1 [Example 606, 3-benzyl-1-(2′-methoxy-5,5′-bipyrimidin-2-yl)-1-(trans-4-((4-(oxetan-3-yloxy)-5-(trifluoromethyl)pyrimidin-2-yl)amino)cyclohexyl)urea]
98% | COc1ncc(-c2cnc(N(C(=O)OCc3ccccc3)[C@H]3CC[C@H](Nc4ncc(C#N)c(N5CC(C)(O)C5)n4)CC3)nc2)cn1 [Example 619, benzyl (trans-4-((5-cyano-4-(3-hydroxy-3-methylazetidin-1-yl)pyrimidin-2-yl)amino)cyclohexyl) (2′-methoxy-5,5′-bipyrimidin-2-yl)carbamate]
97% | COc1ncc(-c2cnc(N(C(=O)NCc3ccccc3)[C@H]3CC[C@H](Nc4ncc(C#N)c(N5CC(C)(O)C5)n4)CC3)cn2)cn1 [Example 620, 3-benzyl-1-(trans-4-((5-cyano-4-(3-hydroxy-3-methylazetidin-1-yl)pyrimidin-2-yl)amino)cyclohexyl)-1-(5-(2-methoxypyrimidin-5-yl)pyrazin-2-yl)urea]
100% | COc1ncc(-c2ccc(N(C(=O)COc3ccccc3)[C@H]3CC[C@H](Nc4ncc(C(F)(F)F)c(N5CC(C)(O)C5)n4)CC3)nc2)cn1 [Example 623, N-(trans-4-((4-(3-hydroxy-3-methylazetidin-1-yl)-5-(trifluoromethyl)pyrimidin-2-yl)amino)cyclohexyl)-N-(5-(2-methoxypyrimidin-5-yl)pyridin-2-yl)-2-phenoxyacetamide]
103% | COc1ncc(-c2ccc(N(C(=O)NCc3ccccc3)[C@H]3CC[C@H](Nc4ncc(C(F)(F)F)c(N5CC(C)(O)C5)n4)CC3)nc2)cn1 [Example 625, 3-benzyl-1-(trans-4-((4-(3-hydroxy-3-methylazetidin-1-yl)-5-(trifluoromethyl)pyrimidin-2-yl)amino)cyclohexyl)-1-(5-(2-methoxypyrimidin-5-yl)pyridin-2-yl)urea]
105% | COc1ncc(-c2ccc(N(C(=O)NCc3ccccc3)[C@H]3CC[C@H](Nc4ncc(C#N)c(N5CC(C)(O)C5)n4)CC3)nc2)cn1 [Example 626, 3-benzyl-1-(trans-4-((5-cyano-4-(3-hydroxy-3-methylazetidin-1-yl)pyrimidin-2-yl)amino)cyclohexyl)-1-(5-(2-methoxypyrimidin-5-yl)pyridin-2-yl)urea]
98% | COc1ncc(-c2ccc(N(C(=O)COc3ccccc3)[C@H]3CC[C@H](Nc4ncc(C(F)(F)F)c(OC5COC5)n4)CC3)nc2)cn1 [Example 627, N-(5-(2-methoxypyrimidin-5-yl)pyridin-2-yl)-N-(trans-4-((4-(oxetan-3-yloxy)-5-(trifluoromethyl)pyrimidin-2-yl)amino)cyclohexyl)-2-phenoxyacetamide]
100% | COc1ncc(-c2ccc(N(C(=O)OCc3ccccn3)[C@H]3CC[C@H](Nc4ncc(C(F)(F)F)c(N5CC(C)(O)C5)n4)CC3)nc2)cn1 [Example 628, pyridin-2-ylmethyl (trans-4-((4-(3-hydroxy-3-methylazetidin-1-yl)-5-(trifluoromethyl)pyrimidin-2-yl)amino)cyclohexyl) (5-(2-methoxypyrimidin-5-yl)pyridin-2-yl)carbamate]
100% | COc1ncc(-c2ccc(N(C(=O)OCc3ccccn3)[C@H]3CC[C@H](Nc4ncc(C(F)(F)F)c(OC5COC5)n4)CC3)nc2)cn1 [Example 629, pyridin-2-ylmethyl (5-(2-methoxypyrimidin-5-yl)pyridin-2-yl) (trans-4-((4-(oxetan-3-yloxy)-5-(trifluoromethyl)pyrimidin-2-yl)amino)cyclohexyl)carbamate]
104% | COc1ncc(-c2ccc(N(C(=O)NCc3ccccn3)[C@H]3CC[C@H](Nc4ncc(C(F)(F)F)c(N5CC(C)(O)C5)n4)CC3)nc2)cn1 [Example 630, 1-(trans-4-((4-(3-hydroxy-3-methylazetidin-1-yl)-5-(trifluoromethyl)pyrimidin-2-yl)amino)cyclohexyl)-1-(5-(2-methoxypyrimidin-5-yl)pyridin-2-yl)-3-(pyridin-2-ylmethyl)urea]
